These results are taken from article PMC6582486, “Stapled EGFR peptide reduces inflammatory breast cancer and inhibits additional HER-driven models of cancer” (Journal of Translational Medicine, 2019).

pIC50: −log10 of the molar value. Read-outs that look alike come from different tables or passages of the source. Where a SMILES comes first, the peptide text is derived from it. Bridges are numbered along the chain shown (N, C = ends). [ ]: non-standard residue; d: D form. R8 = C=CCCCCCC[C@@](C)(N)C(=O)O; S5 = C=CCCC[C@](C)(N)C(=O)O

The test system of data set [1] is SUM149 inflammatory breast cancer cells. The format is cell-based. Conditions: SUM149, 10 µM, 3 days. Here is the method: 1000–3000 cells were plated in 96-well plates (Falcon; Corning, NY) and allowed to adhere for 24–48 h prior to therapeutic introduction. Compounds were added and incubated on cells for 3 days in serum-containing media, followed by 2 h treatment with MTT (Sigma M5655) with the resulting formazan solubilized in DMSO. Absorbance was read at 540 nm by plate reader (uQuant, Bio-Tek Instruments). P-values were calculated from a one-way ANOVA.
Fig. 4 SAH5-EJ1 effectively treats models of basal and inflammatory breast cancers while increasing survival. a Changes in tumor burden in breast cancer PDX mouse model TM01278 with various concentrations of intravenous SAH5-EJ1. Control represents water as a vehicle control. *p < 0.05 (Control vs 1 µg/g); **p < 0.01 (Control vs 1 µg/g and vs 10 µg/g). N = 6 for each condition. b Kaplan–Meier curve of breast PDX mouse model treated with control (blue) or either 1 or 10 µg/g SAH5-EJ1 (green and red, respectively) (red asterisks indicate time point at which mice could no longer receive injections due to site toxicity). Data shown represent mean. N = 6 for all groups. c Cell viability assay performed in SUM149 cells over 3 days comparing treatment with Sapitinib (blue) to SAH5-EJ1 (red) and SAH5-CP (grey). Solid lines represent 24 h; dashed lines represent 72 h. Data shown represent mean ± percent difference of assays performed in triplicate. d Kaplan–Meier curve of inflammatory breast cancer SUM149-injected mouse model treated with injected control (water) (blue) or either 0.5 or 5 µg/g SAH5-EJ1 (green and red, respectively). Data shown represent mean. N = 8 for all groups. e Changes in tumor burden in SUM149-generated tumors with various doses of SAH5-EJ1. Control represents water (blue). Arrow indicates transition from intravenous (IV) SAH5-EJ1 injections to intraperitoneal (IP) on day 66. **p < 0.01 (Control vs 0.5 µg/g and vs 5 µg/g). Data shown represent mean ± standard deviation. N = 8 for all groups. f Images of mouse tumors taken on Day 116. Arrowheads indicate tumor site. Representative images selected. […]

A further data set has as its system MCF10A breast cells. Kind of data set: Cell viability assay (MTT), MCF10A. Format: cell-based, human. The text has this: Fig. 1 Hydrocarbon stapling leads to increased EJ1 activity in comparison to HER-directed monoclonal therapies. a EJ1 sequence with PTD4 domain (underlined) corresponding to EGFR juxtamembrane domain sequence 643–663. Stabilized alpha helix (SAH) variations 1–5 beneath, with asterisks (*) indicating sites of staple. Control peptide (CP) with altered residues indicated by double underline. Stapled control (5) asterisks (*) indicate sites of staple. b Cartoon representation of EJ1 structure, with staple variation 5 highlighted. Positively charged residues indicated in blue, negatively charged residues in red. c Cartoon representation of CP structure, with staple variation highlighted. d Cell viability assay performed in MDA-MB-468 cells after 24 h comparing unstapled EJ1 versus staple variations SAH1, SAH4, and SAH5, with increasing concentrations. e Visualization of MDA-MB-468 cells untreated, treated with 10 µM EJ1, and 10 µM SAH5-EJ1 after 60 min. Scale bars represent 50 µm. f–h Cell viability assay performed in MDA-MB-468, MCF10A, or CHO cells over 3 days comparing treatment with Sapitinib (blue lines), SAH5-EJ1 (red lines), and SAH5-CP (grey lines). […] Absorbance was read at 540 nm by plate reader (uQuant, Bio-Tek Instruments). P-values were calculated from a one-way ANOVA.

For data set [2], the system named is MDA-MB-468 breast cancer cells. The format is cell-based, human. Particulars: for increase in efficacy over unstapled EJ1: MDA-MB-468 cell viability, ratio of IC50. The text has this:
Fig. 1 Hydrocarbon stapling leads to increased EJ1 activity in comparison to HER-directed monoclonal therapies. a EJ1 sequence with PTD4 domain (underlined) corresponding to EGFR juxtamembrane domain sequence 643–663. Stabilized alpha helix (SAH) variations 1–5 beneath, with asterisks (*) indicating sites of staple. Control peptide (CP) with altered residues indicated by double underline. Stapled control (5) asterisks (*) indicate sites of staple. b Cartoon representation of EJ1 structure, with staple variation 5 highlighted. Positively charged residues indicated in blue, negatively charged residues in red. c Cartoon representation of CP structure, with staple variation highlighted. d Cell viability assay performed in MDA-MB-468 cells after 24 h comparing unstapled EJ1 versus staple variations SAH1, SAH4, and SAH5, with increasing concentrations. e Visualization of MDA-MB-468 cells untreated, treated with 10 µM EJ1, and 10 µM SAH5-EJ1 after 60 min. Scale bars represent 50 µm. f–h Cell viability assay performed in MDA-MB-468, MCF10A, or CHO cells over 3 days comparing treatment with Sapitinib (blue lines), SAH5-EJ1 (red lines), and SAH5-CP (grey lines). […] Data shown in d, f, g–i represent mean ± percent difference of assays performed in triplicate 1000–3000 cells were plated in 96-well plates (Falcon; Corning, NY) and allowed to adhere for 24–48 h prior to therapeutic introduction. Compounds were added and incubated on cells for 3 days in serum-containing media, followed by 2 h treatment with MTT (Sigma M5655) with the resulting formazan solubilized in DMSO. Absorbance was read at 540 nm by plate reader (uQuant, Bio-Tek Instruments). P-values were calculated from a one-way ANOVA.

Data set [3] relates to grade 3 invasive ductal breast carcinoma PDX TM01278. Kind of data set: Breast cancer PDX mouse model TM01278. Format: in vivo. The text has this: The following PDX mouse models were generated by Jackson Labs (Sacramento, CA): Breast TM01278; Grade 3 invasive ductal carcinoma, primary malignancy; EGFR inactivating R521K mutation; ERBB3 G1288A mutation in kinase domain with unknown effects on activity; increased EGFR/ERBB2/ERBB3. Lung TM00784; Grade 3 lung adenocarcinoma, primary malignancy; EGFR activating L858R mutation; increased EGFR, decreased ERBB2/ERBB3/ERBB4. All animals were maintained as outlined by University of Arizona Institutional Animal Care and Use Committee (IACUC) by the Experimental Mouse Shared Resource (EMSR).
Fig. 4 SAH5-EJ1 effectively treats models of basal and inflammatory breast cancers while increasing survival. a Changes in tumor burden in breast cancer PDX mouse model TM01278 with various concentrations of intravenous SAH5-EJ1. Control represents water as a vehicle control. *p < 0.05 (Control vs 1 µg/g); **p < 0.01 (Control vs 1 µg/g and vs 10 µg/g). N = 6 for each condition. b Kaplan–Meier curve of breast PDX mouse model treated with control (blue) or either 1 or 10 µg/g SAH5-EJ1 (green and red, respectively) (red asterisks indicate time point at which mice could no longer receive injections due to site toxicity). Data shown represent mean. N = 6 for all groups. c Cell viability assay performed in SUM149 cells over 3 days comparing treatment with Sapitinib (blue) to SAH5-EJ1 (red) and SAH5-CP (grey). […]

As for `CC[C@H](C)[C@H](NC(=O)[C@H](Cc1c[nH]cn1)NC(=O)[C@H](CCCNC(=N)N)NC(=O)[C@H](CCCNC(=N)N)NC(=O)[C@H](CCCNC(=N)N)NC(=O)[C@H](CCSC)NC(=O)[C@H](Cc1ccccc1)NC(=O)[C@H](C)NC(=O)[C@H](CCCNC(=N)N)NC(=O)[C@H](C)NC(=O)[C@H](CCC(N)=O)NC(=O)[C@H](CCCNC(=N)N)NC(=O)[C@H](C)NC(=O)[C@H](C)NC(=O)[C@H](C)NC(=O)[C@H](CCCNC(=N)N)NC(=O)[C@H](C)NC(=O)[C@@H](N)Cc1ccc(O)cc1)C(=O)N[C@H](C(=O)N[C@@H](CCCNC(=N)N)C(=O)N[C@@H](CCCCN)C(=O)N[C@@H](CCCNC(=N)N)C(=O)N[C@]1(C)CCCCCCC=CCCC[C@@](C)(C(=O)N[C@@H](CCCNC(=N)N)C(=O)N[C@@H](CCC(=O)O)C(N)=O)NC(=O)[C@H](CCC(N)=O)NC(=O)[C@H](CC(C)C)NC(=O)[C@H](CC(C)C)NC(=O)[C@H](CCCNC(=N)N)NC(=O)[C@H](CCCNC(=N)N)NC(=O)[C@H](CC(C)C)NC1=O)C(C)C` [SAH5-EJ1] (H-YARAAARQARAFMRRRHIVRKR[R8]LRRLLQ[S5]RE-NH2; staple 23-30), in data set [1], the cell viability entry was “zero”. Besides, the “concentration at which complete cell death was observed” value in the data set with MCF10A breast cells came out at 10 µM. In addition, the pIC50 (in general, the IC50 on a negative log10 scale, so that one unit is a factor of ten) in data set [2] (24 h) was 5.60. Also, in data set [2] (MDA-MB-468, 4 µM, after 1 day), the cell death result is recorded as “complete cell death”. The “increase in efficacy over unstapled EJ1” value is given as “more than 7 fold” in data set [2] and 7.2 fold in data set [2] (listed as SAH-EJ1). This compound displayed an increase in survival in data set [3] (1 µg/g IV vs control, N = 6) of 2.5 fold. Further, the “time on study at which all remaining mice were sacrificed due to toxicity at the injection site” value in data set [3] (10 µg/g IV) amounted to 41 days.
